Inconclusive results and toxic doses are left out. Rule as the data show it: active = T/C of 150% or more; inactive = T/C below 125%.
Tested on: L1210 leukemia ip in BDF1 mice, survival T/C
Experiment: NCI In Vivo Anticancer Drug Screen. Data for tumor model L1210 Leukemia (intraperitoneal) in B6D2F1 (BDF1) mice
Conditions: endpoint: mean survival time, vehicle: saline, higher = longer survival
Summary of the method: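 Transplantable tumor model; survival measured in treated vs vehicle control mice. Value = treated/control.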

[1] = dose: 100.0 mg/kg/injection, schedule: Q01DX001 (ip)
[2] = dose: 200.0 mg/kg/injection, schedule: Q01DX001 (ip)
[3] = dose: 400.0 mg/kg/injection, schedule: Q01DX001 (ip)

Measured: T/C

COc1c(N)c(C)nc(Cl)c1C#N
inactive: [1] 97 % of control | [2] 103 % of control | [3] 109 % of control

CNC(=O)n1ncc2ccc([N+](=O)[O-])cc21
inactive: [1] 107 % of control | [2] 107 % of control | [3] 102 % of control

CN1CCN(c2nc3nnnn3c3ccccc23)CC1
inactive: dose: 50.0 mg/kg/injection, schedule: Q04DX003 (ip) 101 % of control | dose: 100.0 mg/kg/injection, schedule: Q04DX003 (ip) 104 % of control | dose: 200.0 mg/kg/injection, schedule: Q04DX003 (ip) 101 % of control

COc1ccc(C)cc1CCCO
inactive: dose: 50.0 mg/kg/injection, schedule: Q01DX001 (ip) 101 % of control | [1] 101 % of control | [2] 101 % of control | [3] 93 % of control

Source: PubChem BioAssay AID248 (DTP/NCI, 2004)
